Tests used:
Assay in all cases: Kinase inhibitor library screening, PrestoBlue cell viability, 1 or 10 μM, 72 h
501Mel cells (parental) = conditions: 72 h; for cell viability (kinase inhibitor library screening): 501Mel Parental
Experimental: (§1) After 72 h of treatment, cell viability was assessed using the PrestoBlue Cell Viability Reagent (ThermoFisher Scientific). Measurements were performed with the CLARIOstar Monochromator microplate reader (BMG Labtech).
(§2) Kinase inhibitor library screening. […] Each cell line was treated in its sensitive form (parental), and also as 2 resistant derivatives, which were made resistant to either Vemurafenib (XP) or Dabrafenib (GP). Drugs were added at 2 different concentrations, 1 and 10 μM, for 72 h and cell viability was assessed using the PrestoBlue Cell Viability assay. Results are depicted as % viability compared to untreated cells. Each cell line was analyzed at least in duplicate. […] (XLSX 95 kb)

[1] = test system: A375-XP cells (Vemurafenib-resistant); conditions: for cell viability (kinase inhibitor library screening): A375 XP, 72 h
Experimental: as §1, §2

[2] = test system: IGR37-GP cells (Dabrafenib-resistant); conditions: for cell viability (kinase inhibitor library screening): IGR37 GP, 72 h
Experimental: as §1, §2

[3] = test system: 501Mel-XP cells (Vemurafenib-resistant); conditions: 72 h; for cell viability (kinase inhibitor library screening): 501Mel XP
Experimental: as §1, §2

IGR37 cells (parental) = conditions: for cell viability (kinase inhibitor library screening): IGR37 Parental, 72 h
Experimental: as §1, §2

[4] = test system: 501Mel-GP cells (Dabrafenib-resistant); conditions: 72 h; for cell viability (kinase inhibitor library screening): 501Mel GP
Experimental: as §1, §2

[5] = test system: IGR37-XP cells (Vemurafenib-resistant); conditions: for cell viability (kinase inhibitor library screening): IGR37 XP, 72 h
Experimental: as §1, §2

[6] = test system: A375-GP cells (Dabrafenib-resistant); conditions: for cell viability (kinase inhibitor library screening): A375 GP, 72 h
Experimental: as §1, §2

A375 cells (parental) = conditions: for cell viability (kinase inhibitor library screening): A375 Parental, 72 h
Experimental: as §1, §2

SMILES	cell viability (kinase inhibitor library screening) (501Mel cells (parental); 1μΜ) [%]	cell viability (kinase inhibitor library screening) (501Mel cells (parental); 10μΜ) [%]	cell viability (kinase inhibitor library screening) ([1]; 1μΜ) [%]	cell viability (kinase inhibitor library screening) ([1]; 10μΜ) [%]	cell viability (kinase inhibitor library screening) ([2]; 1μΜ) [%]	cell viability (kinase inhibitor library screening) ([2]; 10μΜ) [%]	cell viability (kinase inhibitor library screening) ([3]; 1μΜ) [%]	cell viability (kinase inhibitor library screening) ([3]; 10μΜ) [%]	cell viability (kinase inhibitor library screening) (IGR37 cells (parental); 1μΜ) [%]	cell viability (kinase inhibitor library screening) (IGR37 cells (parental); 10μΜ) [%]	cell viability (kinase inhibitor library screening) ([4]; 1μΜ) [%]	cell viability (kinase inhibitor library screening) ([4]; 10μΜ) [%]	cell viability (kinase inhibitor library screening) ([5]; 10μΜ) [%]	cell viability (kinase inhibitor library screening) ([6]; 1μΜ) [%]	cell viability (kinase inhibitor library screening) ([6]; 10μΜ) [%]	cell viability (kinase inhibitor library screening) (A375 cells (parental); 10μΜ) [%]	cell viability (kinase inhibitor library screening) (A375 cells (parental); 1μΜ) [%]	further results
S=C(NCc1ccc2c(c1)OCO2)N1CCN(c2ncnc3c2oc2ccccc23)CC1 [Amuvatinib (MP-470)]	98.9	98.9	104.7	94.9	94.7	95.7	100.3	88.3	95.9	97.0	105.2	86.9	77.9	95.9	84.4	84.8	97.4	
Cc1cc(Nc2ncnc3ccc(NC4=NC(C)(C)CO4)cc23)ccc1Oc1ccn2ncnc2c1 [Arry-380]																		viability at 1 µM (501Mel cells (parental); Homo sapiens, read-out: cell viability, 501Mel Parental, 1μΜ): 103%; viability at 10 µM (501Mel cells (parental); Homo sapiens, read-out: cell viability, 501Mel Parental, 10μΜ): 69.6%; viability at 1 µM ([1]; Homo sapiens, A-375, 72 h, read-out: cell viability, A375 XP, 1μΜ): 106%; viability at 10 µM ([1]; Homo sapiens, A-375, 72 h, read-out: cell viability, A375 XP, 10μΜ): 80.2%; viability at 1 µM ([2]; Homo sapiens, IGR-37, 72 h, read-out: cell viability, IGR37 GP, 1μΜ): 96.4%; viability at 10 µM ([2]; Homo sapiens, IGR-37, 72 h, read-out: cell viability, IGR37 GP, 10μΜ): 57.2%; viability at 1 µM ([3]; Homo sapiens, read-out: cell viability, 501Mel XP, 1μΜ): 117%; viability at 10 µM ([3]; Homo sapiens, read-out: cell viability, 501Mel XP, 10μΜ): 52.3%; viability at 1 µM (IGR37 cells (parental); Homo sapiens, IGR-37, 72 h, read-out: cell viability, IGR37 Parental, 1μΜ): 108%; viability at 10 µM (IGR37 cells (parental); Homo sapiens, IGR-37, 72 h, read-out: cell viability, IGR37 Parental, 10μΜ): 103%; viability at 1 µM ([4]; Homo sapiens, read-out: cell viability, 501Mel GP, 1μΜ): 101%; viability at 10 µM ([4]; Homo sapiens, read-out: cell viability, 501Mel GP, 10μΜ): 56.8%; viability at 1 µM ([5]; Homo sapiens, IGR-37, 72 h, read-out: cell viability, IGR37 XP, 1μΜ): 99.7%; viability at 10 µM ([5]; Homo sapiens, IGR-37, 72 h, read-out: cell viability, IGR37 XP, 10μΜ): 24.3%; viability at 1 µM ([6]; Homo sapiens, A-375, 72 h, read-out: cell viability, A375 GP, 1μΜ): 105%; viability at 10 µM ([6]; Homo sapiens, A-375, 72 h, read-out: cell viability, A375 GP, 10μΜ): 77.8%; viability at 1 µM (A375 cells (parental); Homo sapiens, A-375, 72 h, read-out: cell viability, A375 Parental, 1μΜ): 105%; viability at 10 µM (A375 cells (parental); Homo sapiens, A-375, 72 h, read-out: cell viability, A375 Parental, 10μΜ): 89.6%
CCN1CCN(C(=O)Cc2ccc(Nc3ncc(F)c(Nc4ccc(C(=O)Nc5ccccc5Cl)cc4)n3)cc2)CC1 [Aurora A Inhibitor I]	105.7	41.4	95.8	37.0	90.4	5.3	75.4	4.3	94.5	4.6	99.5	29.4	2.4	90.9	42.7	48.5	96.9	cell viability (kinase inhibitor library screening) ([5]; 1μΜ): 92.1%

Reference: PMC6364417, “Kinase inhibitor library screening identifies synergistic drug combinations effective in sensitive and resistant melanoma cells” (Journal of Experimental & Clinical Cancer Research : CR, 2019)
